Reference: PMC5557014 (Biochemical pharmacology, 2017)
Read-outs that look alike come from different tables or passages of the source.

How the values were obtained:
Type in all cases: biochemical
HSV-1 DNA polymerase = HSV-1 DNA polymerase (Human herpesvirus 1, UniProt P04293); assay: HSV-1 DNA polymerase enzyme assay; conditions: calf thymus DNA
HCMV DNA polymerase = HCMV DNA polymerase (Human cytomegalovirus, UniProt P08546); assay: HCMV DNA polymerase enzyme assay; conditions: calf thymus DNA
[1] = target: T1, cellular DNA polymerase α (Homo sapiens, UniProt P09884); assay: Cellular DNA polymerase α assay
T1 sequence (P09884 1-1462): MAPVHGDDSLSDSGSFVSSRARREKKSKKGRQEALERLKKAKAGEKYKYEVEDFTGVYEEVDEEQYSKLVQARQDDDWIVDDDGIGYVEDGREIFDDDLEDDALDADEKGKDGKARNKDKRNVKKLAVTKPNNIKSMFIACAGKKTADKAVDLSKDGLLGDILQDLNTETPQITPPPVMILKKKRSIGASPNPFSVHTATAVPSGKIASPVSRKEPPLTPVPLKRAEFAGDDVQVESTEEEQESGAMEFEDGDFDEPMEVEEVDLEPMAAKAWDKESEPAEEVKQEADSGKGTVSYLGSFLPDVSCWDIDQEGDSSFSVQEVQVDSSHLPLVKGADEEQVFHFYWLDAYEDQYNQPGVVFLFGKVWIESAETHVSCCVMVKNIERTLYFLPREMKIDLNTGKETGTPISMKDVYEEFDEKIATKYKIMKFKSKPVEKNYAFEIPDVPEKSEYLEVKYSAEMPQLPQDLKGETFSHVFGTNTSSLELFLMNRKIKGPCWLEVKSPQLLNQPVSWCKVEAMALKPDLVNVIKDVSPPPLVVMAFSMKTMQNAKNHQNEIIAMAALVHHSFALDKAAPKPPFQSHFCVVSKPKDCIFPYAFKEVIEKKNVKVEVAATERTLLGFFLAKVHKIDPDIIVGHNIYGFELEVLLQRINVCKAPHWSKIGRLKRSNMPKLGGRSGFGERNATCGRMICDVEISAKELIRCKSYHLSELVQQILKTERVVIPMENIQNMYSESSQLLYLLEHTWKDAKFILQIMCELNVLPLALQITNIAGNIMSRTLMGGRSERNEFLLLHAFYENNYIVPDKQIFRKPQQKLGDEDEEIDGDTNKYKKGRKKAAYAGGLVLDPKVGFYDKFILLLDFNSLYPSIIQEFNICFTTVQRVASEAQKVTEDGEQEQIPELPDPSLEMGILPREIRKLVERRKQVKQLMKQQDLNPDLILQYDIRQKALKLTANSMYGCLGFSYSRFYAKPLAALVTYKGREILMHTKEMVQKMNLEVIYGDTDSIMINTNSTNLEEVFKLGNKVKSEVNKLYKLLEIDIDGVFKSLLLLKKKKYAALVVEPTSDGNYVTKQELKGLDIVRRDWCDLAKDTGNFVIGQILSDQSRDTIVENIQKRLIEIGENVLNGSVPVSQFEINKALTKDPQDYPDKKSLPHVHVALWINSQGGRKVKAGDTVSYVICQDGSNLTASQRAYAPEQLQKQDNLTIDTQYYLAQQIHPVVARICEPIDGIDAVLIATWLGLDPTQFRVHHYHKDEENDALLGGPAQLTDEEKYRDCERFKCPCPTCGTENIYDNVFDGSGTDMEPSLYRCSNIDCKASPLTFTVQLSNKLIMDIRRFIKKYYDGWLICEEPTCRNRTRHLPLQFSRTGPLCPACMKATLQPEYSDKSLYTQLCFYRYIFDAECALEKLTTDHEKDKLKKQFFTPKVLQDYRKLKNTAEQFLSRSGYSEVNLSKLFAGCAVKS

[2] = target: cellular DNA polymerase β (Homo sapiens, UniProt P06746); assay: Cellular DNA polymerase β assay
HIV-1 RT = HIV-1 RT (Human immunodeficiency virus type 1 group M subtype B, UniProt P04585); assay: HIV-1 RT assay with homopolymeric template/primers

Sequence of HCMV DNA polymerase (P08546 whole entry): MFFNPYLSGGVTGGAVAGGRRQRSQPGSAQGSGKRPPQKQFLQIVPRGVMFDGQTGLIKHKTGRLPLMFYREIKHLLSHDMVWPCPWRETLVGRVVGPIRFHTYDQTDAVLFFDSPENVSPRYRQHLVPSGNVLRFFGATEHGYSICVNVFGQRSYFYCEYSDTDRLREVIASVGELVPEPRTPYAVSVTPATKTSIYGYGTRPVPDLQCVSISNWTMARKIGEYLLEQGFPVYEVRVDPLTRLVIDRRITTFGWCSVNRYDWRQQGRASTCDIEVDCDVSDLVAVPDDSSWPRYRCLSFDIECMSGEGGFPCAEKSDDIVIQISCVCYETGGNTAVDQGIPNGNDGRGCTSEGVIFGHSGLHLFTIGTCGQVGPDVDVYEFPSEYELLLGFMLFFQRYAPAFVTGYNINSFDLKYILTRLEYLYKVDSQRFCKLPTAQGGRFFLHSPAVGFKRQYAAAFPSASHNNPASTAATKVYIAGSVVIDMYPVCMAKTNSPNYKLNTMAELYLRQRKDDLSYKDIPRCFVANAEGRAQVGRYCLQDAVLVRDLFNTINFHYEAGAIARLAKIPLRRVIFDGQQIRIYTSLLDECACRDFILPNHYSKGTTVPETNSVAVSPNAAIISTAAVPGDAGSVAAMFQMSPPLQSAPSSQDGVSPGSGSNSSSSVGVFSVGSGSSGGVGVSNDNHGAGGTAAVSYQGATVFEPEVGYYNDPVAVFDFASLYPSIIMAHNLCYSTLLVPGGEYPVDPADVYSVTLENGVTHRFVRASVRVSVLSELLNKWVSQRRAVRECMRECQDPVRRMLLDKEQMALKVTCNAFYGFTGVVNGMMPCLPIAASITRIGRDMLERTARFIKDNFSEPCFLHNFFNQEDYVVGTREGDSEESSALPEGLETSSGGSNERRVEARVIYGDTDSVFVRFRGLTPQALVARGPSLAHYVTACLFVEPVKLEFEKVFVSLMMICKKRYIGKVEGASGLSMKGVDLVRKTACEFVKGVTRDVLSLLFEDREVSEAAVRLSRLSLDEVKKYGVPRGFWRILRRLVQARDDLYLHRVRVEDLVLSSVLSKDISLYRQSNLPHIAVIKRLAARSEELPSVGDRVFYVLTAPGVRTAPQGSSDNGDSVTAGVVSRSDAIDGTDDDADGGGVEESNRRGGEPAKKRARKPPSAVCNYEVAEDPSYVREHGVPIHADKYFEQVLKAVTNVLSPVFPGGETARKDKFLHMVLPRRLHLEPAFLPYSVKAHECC
Sequence of HSV-1 DNA polymerase (P04293 whole entry): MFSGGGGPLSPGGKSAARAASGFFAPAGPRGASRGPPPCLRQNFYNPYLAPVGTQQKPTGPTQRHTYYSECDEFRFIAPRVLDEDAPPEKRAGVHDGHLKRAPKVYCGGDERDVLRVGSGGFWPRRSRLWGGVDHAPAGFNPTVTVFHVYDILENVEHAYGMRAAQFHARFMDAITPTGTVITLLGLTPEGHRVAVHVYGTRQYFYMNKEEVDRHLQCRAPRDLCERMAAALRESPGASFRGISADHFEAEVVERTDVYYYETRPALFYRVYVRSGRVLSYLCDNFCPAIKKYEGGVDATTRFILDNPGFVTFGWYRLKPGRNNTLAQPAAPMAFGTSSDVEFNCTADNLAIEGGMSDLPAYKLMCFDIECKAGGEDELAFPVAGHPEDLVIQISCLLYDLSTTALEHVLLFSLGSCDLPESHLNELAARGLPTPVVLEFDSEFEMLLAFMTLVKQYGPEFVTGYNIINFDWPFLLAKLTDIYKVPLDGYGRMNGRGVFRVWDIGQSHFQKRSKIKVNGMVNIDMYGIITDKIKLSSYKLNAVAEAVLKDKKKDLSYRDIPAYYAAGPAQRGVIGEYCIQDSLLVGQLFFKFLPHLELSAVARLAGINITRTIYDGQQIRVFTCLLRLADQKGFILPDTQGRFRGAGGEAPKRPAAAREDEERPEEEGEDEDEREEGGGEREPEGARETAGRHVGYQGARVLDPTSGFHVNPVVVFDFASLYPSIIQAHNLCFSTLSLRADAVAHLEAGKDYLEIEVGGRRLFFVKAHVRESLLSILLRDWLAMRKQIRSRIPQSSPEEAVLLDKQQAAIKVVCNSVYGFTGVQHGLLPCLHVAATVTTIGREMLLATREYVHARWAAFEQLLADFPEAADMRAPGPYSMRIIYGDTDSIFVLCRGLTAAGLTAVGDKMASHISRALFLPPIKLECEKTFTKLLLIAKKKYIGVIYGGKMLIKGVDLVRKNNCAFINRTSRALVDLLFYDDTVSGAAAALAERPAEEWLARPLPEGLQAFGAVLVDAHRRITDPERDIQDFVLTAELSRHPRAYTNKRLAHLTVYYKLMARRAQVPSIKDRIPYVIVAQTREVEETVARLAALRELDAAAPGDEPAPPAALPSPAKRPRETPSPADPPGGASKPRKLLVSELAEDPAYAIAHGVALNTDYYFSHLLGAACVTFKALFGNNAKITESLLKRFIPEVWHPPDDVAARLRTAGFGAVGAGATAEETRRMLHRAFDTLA

Compound | IC50 (HSV-1 DNA polymerase; IC50 HSV-1 DNA pol, [^3H]dGTP) | IC50 (HSV-1 DNA polymerase; IC50 HSV-1 DNA pol, [^3H]dTTP) | IC50 (HCMV DNA polymerase; IC50 HCMV DNA pol, [^3H]dGTP) | IC50 (HCMV DNA polymerase; IC50 HCMV DNA pol, [^3H]dTTP) | IC50 [1] | IC50 [2] | IC50 (HIV-1 RT; read-out: IC50 HIV-1 RT, poly rA.dT, [^3H]dTTP) | IC50 (HIV-1 RT; read-out: IC50 HIV-1 RT, poly rC.dG, [^3H]dGTP) | IC50 (HSV-1 DNA polymerase; read-out: IC50 HSV-1 DNA pol, [^3H]dGTP) | IC50 (HSV-1 DNA polymerase; read-out: IC50 HSV-1 DNA pol, [^3H]dTTP) | IC50 (HCMV DNA polymerase; read-out: IC50 HCMV DNA pol, [^3H]dGTP) | IC50 (HCMV DNA polymerase; read-out: IC50 HCMV DNA pol, [^3H]dTTP) | IC50 ([1]; read-out: IC50 α DNA pol, calf thymus DNA, [^3H]dGTP) | IC50 ([2]; read-out: IC50 β DNA pol, calf thymus DNA, [^3H]dGTP) | IC50 (HIV-1 RT; IC50 HIV-1 RT, poly rA.dT, [^3H]dTTP) | IC50 (HIV-1 RT; IC50 HIV-1 RT, poly rC.dG, [^3H]dGTP)
Cc1ccnc2c1NC(=O)c1cccnc1N2C1CC1 [Nevirapine] | > 100 µM | > 100 µM | > 250 µM | > 250 µM | > 250 µM | > 250 µM | – | – | – | – | – | – | – | – | – | –
O=C(O)P(=O)(O)O [PFA] | – | – | – | – | – | – | 550 ± 10 nM | 17000 ± 2000 nM | 1.6 ± 0.8 µM | 3.5 ± 1.7 µM | 7 ± 0.7 µM | 9.4 ± 6 µM | 56 ± 12 µM | > 100 µM | – | –
Nc1nc2c(ncn2[C@H]2CC[C@@H](COP(=O)(O)OP(=O)(O)OP(=O)(O)O)O2)c(=O)[nH]1 [ddGTP, 2′,3′-dideoxyguanosine-5′-triphosphate] | 4.5 ± 1.2 µM | > 100 µM | 48 ± 15 µM | > 100 µM | 73 ± 8 µM | 2.2 ± 1.8 µM | – | – | – | – | – | – | – | – | > 100000 nM | 410 ± 20 nM
